In patent US6277860A, “Furopyridine antibacterials” (Pfizer Inc, priority 1999, dated 2001):
≈ marks a conversion by molar mass, not a printed value. Read-outs that look alike come from different tables or passages of the source.

Key:
[1] = test system: S. aureus 01A1105; assay: MIC by serial agar dilution method, S. aureus 01A1105; assay type: cell-based, Staphylococcus aureus
Method: (§1) Other strains which have similar characteristics of resistance to drugs may be also used. Such strains are usually available for those skilled in the art.
(§2) MIC: minimum inhibitory concentration; for more detail see below.
(§3) Each strain of S. aureus 01A1105, E faecalis 03A1069 and E. coli 51A0266 is inoculated and grown in tube containing 10 ml of Trypticase Soy Broth (TSB, DIFCO), overnight at 37° C. shaking at 200 rpm. The cell-concentration of the culture is adjusted by dilution with TSB and 50% aqueous glycerol to an optical density of 1.4 at 600 nm (light path=1 cm) and a final glycerol concentration of 20%. The diluted culture is dispensed to cryotubes, 1 ml per vial, and stored at -80° C. until its use.
(§4) Each stock culture, 200 μl for S. aureus and E. coli and 1 ml for E. faecalis, is added to 100 ml of Mueller Hinton medium (DIFCO), mixed and poured into an assay plate. The stock culture (1 ml) of S. pyogenes is inoculated into a tube containing 20 ml TSB and 1.0 ml defibrinated horse blood (Nippon Bio-Supply Center), and incubated statically at 37° C. for 24 hours. The incubated culture (5 ml) and 5 ml of sheep blood (Nippon Bio-Supply Center) were added to Mueller Hinton medium (100 ml), mixed and poured into an assay plate.
(§5) For determination of minimum inhibitory concentration (MIC), serial agar dilution method is used with same incubation condition as described above. The growth of bacteria is monitored by measuring the optical density at 655 nm.
(§6) The compound prepared in Example 1(2R*,3R*-2,3-dihydro-2-[(E)-2-buten-2-yl]-4-hydroxy-3-methyl-5-phenylfuro[2,3-b]pyridine-3-carbaldehyde ) was tested according to the assay method described in pages 12 to 14.

[2] = test system: Enterococcus faecalis 03A1069; assay: MIC by serial agar dilution method, Enterococcus faecalis 03A1069; assay type: cell-based
Method: as §1, §2, §3, §4, §5, §6

[3] = test system: S. pyogenes 02C1068; assay: MIC by serial agar dilution method, S. pyogenes 02C1068; assay type: cell-based; conditions: for MIC: Streptococcus pyogenes
Method: as §1, §2
The strain of S. pyogenes 02C1068 was inoculated and grown in tubes, containing 10 ml of TSB with 0.5 ml of lysed horse blood (Nippon Bio-Supply Center), statically for 24 hours at 37° C. After the incubation, the cells were centrifuged and resuspended in a mixture of 50% aqueous glycerol (4 ml) and defibrinated sheep blood (6 ml, Nippon Bio-Supply Center). The resulting cell-suspension was dispensed to cryotubes, 1 ml per vial, and stored at -80° C. until its use.
as §4, §5, §6

[4] = test system: Escherichia coli 51A0266; assay: MIC by serial agar dilution method, Escherichia coli 51A0266; assay type: cell-based
Method: as §1, §2, §3
as §4, with “The incubated culture (5 ml) and 5 ml of sheep blood (Nippon Bio-Supply Center) were added to Mueller Hinton medium (100 ml), mixed and poured into an assay plate.” left out
For determination of minimum inhibitory concentration (MIC), serial agar dilution method is used with same incubation condition as described above. The growth of bacteria is monitored by measuring the optical density at 655 nm. […]

[5] = test system: Staphylococcus aureus 01A1095; assay: MIC by serial agar dilution method, Staphylococcus aureus 01A1095; assay type: cell-based
Method: as §2, §5, §6

[6] = test system: S. aureus 01A1120; assay: MIC by serial agar dilution method, S. aureus 01A1120; assay type: cell-based, Staphylococcus aureus
Method: as §2, §5, §6

[7] = test system: S. hemolyticus 01E1006; assay: MIC by serial agar dilution method, S. hemolyticus 01E1006; assay type: cell-based
Method: as §2, §5, §6

[8] = test system: Streptococcus agalactiae 02B1023; assay: MIC by serial agar dilution method, Streptococcus agalactiae 02B1023; assay type: cell-based
Method: as §2, §5, §6

[9] = test system: S. pyogenes 02C1079; assay: MIC by serial agar dilution method, S. pyogenes 02C1079; assay type: cell-based
Method: as §2, §5, §6

[10] = test system: S. pneumoniae 02J1046; assay: MIC by serial agar dilution method, S. pneumoniae 02J1046; assay type: cell-based, Streptococcus pneumoniae
Method: as §2, §5, §6

[11] = test system: S. pneumoniae 02J1095; assay: MIC by serial agar dilution method, S. pneumoniae 02J1095; assay type: cell-based, Streptococcus pneumoniae
Method: as §2, §5, §6

[12] = test system: Haemophilus influenzae 54A0085; assay: MIC by serial agar dilution method, Haemophilus influenzae 54A0085; assay type: cell-based
Method: as §2, §5, §6

[13] = test system: H. influenzae 54A0131; assay: MIC by serial agar dilution method, H. influenzae 54A0131; assay type: cell-based, Haemophilus influenzae
Method: as §2, §5, §6

[14] = test system: Moraxella catarrhalis 87A1055; assay: MIC by serial agar dilution method, Moraxella catarrhalis 87A1055; assay type: cell-based
Method: as §2, §5, §6

[15] = test system: E. coli 51A1051; assay: MIC by serial agar dilution method, E. coli 51A1051; assay type: cell-based, Escherichia coli
Method: as §2, §5, §6

[16] = test system: E. coli 51A1073; assay: MIC by serial agar dilution method, E. coli 51A1073; assay type: cell-based, Escherichia coli
Method: as §2, §5, §6

[17] = test system: E. coli 51A1074; assay: MIC by serial agar dilution method, E. coli 51A1074; assay type: cell-based, Escherichia coli
Method: as §2, §5, §6

[18] = test system: E. coli 51A1075; assay: MIC by serial agar dilution method, E. coli 51A1075; assay type: cell-based, Escherichia coli
Method: as §2, §5, §6

[19] = test system: various bacteria; assay: Antibacterial assay, overall result in words; assay type: cell-based
Method: Sample solution is loaded and dried on a paper disk (i.d. 6 mm, thin, Advantec) which is placed on the assay plate and incubated overnight at 37° C. The activity is determined by measuring the size of growth-inhibition zone around the disk. As controls, vancomycin 1 μg and tetracycline 1 μg disks are used.
as §5, §6

[20] = Staphylococcus aureus 01A1105, antibiotic resistance of strain, read-out: MIC (minimum inhibitory concentration)
[21] = Staphylococcus aureus, 01A1105, read-out: MIC (minimum inhibitory concentration)
[22] = Enterococcus faecalis, 03A1069, read-out: MIC (minimum inhibitory concentration)
[23] = Storeptococcus pyogenes 02C1068, antibiotic resistance of strain, read-out: MIC (minimum inhibitory concentration)

CO/N=C(\C(=O)N[C@@H]1C(=O)N2C(C(=O)O)=C(COC(C)=O)CS[C@H]12)c1csc(N)n1 [cefataxime]
MIC [1, 20]: > 256 µg/mL

gentamicin
MIC (minimum inhibitory concentration) ([1]; Staphylococcus aureus 01A1105, antibiotic resistance of strain): 64 µg/mL

COc1cccc(OC)c1C(=O)N[C@@H]1C(=O)N2[C@@H]1SC(C)(C)[C@@H]2C(=O)O [methicillin]
MIC [1, 20]: > 256 µg/mL

CC1(C)S[C@@H]2[C@H](NC(=O)Cc3ccccc3)C(=O)N2[C@H]1C(=O)O [penicillin G]
MIC [1, 21]: 64 µg/mL (≈ 191 µM)
MIC [2, 22]: 6 µg/mL (≈ 17.9 µM)

CC[C@H]1OC(=O)[C@H](C)[C@@H](O[C@H]2C[C@@](C)(OC)[C@@H](O)[C@H](C)O2)[C@H](C)[C@@H](O[C@@H]2O[C@H](C)C[C@H](N(C)C)[C@H]2O)[C@](C)(O)C[C@@H](C)CN(C)[C@H](C)[C@@H](O)[C@]1(C)O [azithromycin]
MIC [3, 23]: > 16 µg/mL
MIC ([2]; Enterococcus faecalis 03A1069, antibiotic resistance of strain, read-out: MIC (minimum inhibitory concentration)): > 256 µg/mL

CCC[C@@H]1C[C@@H](C(=O)N[C@@H]([C@H]2O[C@H](SC)[C@H](O)[C@@H](O)[C@H]2O)[C@H](C)Cl)N(C)C1 [clindamycin]
MIC [1, 20]: > 256 µg/mL
MIC [3, 23]: > 64 µg/mL

O=C(N[C@H](CO)[C@H](O)c1ccc([N+](=O)[O-])cc1)C(Cl)Cl [chloramphenicol]
MIC [2, 22]: 16 µg/mL (≈ 49.5 µM)

O=C(O)c1cn(C2CC2)c2cc(N3CCNCC3)c(F)cc2c1=O [ciprofloxacin]
MIC [1, 21]: > 32 µg/mL

CN(C)C1C(=O)C(C(N)=O)=C(O)C2(O)C(=O)C3=C(O)c4c(O)cccc4C(C)(O)C3CC12 (stereo not drawn) [tetracycline]
MIC [1, 21]: 128 µg/mL (≈ 288 µM)

CN[C@H](CC(C)C)C(=O)N[C@H]1C(=O)N[C@@H](CC(N)=O)C(=O)N[C@H]2C(=O)N[C@H]3C(=O)N[C@H](C(=O)N[C@H](C(=O)O)c4cc(O)cc(O)c4-c4cc3ccc4O)[C@H](O)c3ccc(c(Cl)c3)Oc3cc2cc(c3O[C@@H]2O[C@H](CO)[C@@H](O)[C@H](O)[C@H]2O[C@H]2C[C@](C)(N)[C@H](O)[C@H](C)O2)Oc2ccc(cc2Cl)[C@H]1O [vancomycin, reference compound]
MIC [2, 22]: 24 µg/mL (≈ 16.6 µM)
MIC ([4]; Escherichia coli, 51A0266, read-out: MIC (minimum inhibitory concentration)): > 128 µg/mL

CC(=O)OCC1=C(C(=O)O)N2C(=O)[C@@H](NC(=O)Cc3cccs3)[C@H]2SC1 [cephalothin]
MIC [2, 22]: 128 µg/mL (≈ 323 µM)

C/C=C(\C)[C@H]1Oc2ncc(-c3ccccc3)c(O)c2[C@@]1(C)C=O (relative stereo) [Example 1, 2R*,3R*-2,3-dihydro-2-[(E)-2-buten-2-yl]-4-hydroxy-3-methyl-5-phenylfuro[2,3-b]pyridine-3-carbaldehyde]
minimum inhibitory concentration (MIC) [5]: 100
minimum inhibitory concentration (MIC) ([1]; S. aureus 01A1105, multidrug resistant): 25
minimum inhibitory concentration (MIC) [6]: 25
minimum inhibitory concentration (MIC) [7]: 100
minimum inhibitory concentration (MIC) [8]: 25
minimum inhibitory concentration (MIC) ([3]; S. pyogenes 02C1068, multidrug resistant): 6.25
minimum inhibitory concentration (MIC) [9]: 12.5
minimum inhibitory concentration (MIC) [10]: 25
minimum inhibitory concentration (MIC) [11]: 6.25
minimum inhibitory concentration (MIC) ([2]; Enterococcus faecalis 03A1069, multidrug resistant): 100
minimum inhibitory concentration (MIC) [12]: 50
minimum inhibitory concentration (MIC) [13]: 100
minimum inhibitory concentration (MIC) [14]: 50
minimum inhibitory concentration (MIC) ([4]; Escherichia coli 51A0266): > 100
minimum inhibitory concentration (MIC) [15]: > 100
minimum inhibitory concentration (MIC) [16]: > 100
minimum inhibitory concentration (MIC) [17]: > 100
minimum inhibitory concentration (MIC) [18]: 100
antibacterial activity against various bacteria [19]: remarkable antibacterial activity against various bacteria

CC[C@H]1OC(=O)[C@H](C)[C@@H](O[C@H]2C[C@@](C)(OC)[C@@H](O)[C@H](C)O2)[C@H](C)[C@@H](O[C@@H]2O[C@H](C)C[C@H](N(C)C)[C@H]2O)[C@](C)(O)C[C@@H](C)C(=O)[C@H](C)[C@@H](O)[C@]1(C)O [erythromycin]
MIC [1, 21]: > 256 µg/mL
MIC ([3]; 02C1068, read-out: MIC (minimum inhibitory concentration)): > 64 µg/mL
